Assay results as given in PubChem BioAssay (NCI).
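48-hour exposure; five concentrations; linearly interpolated endpoints. At the TGI there is no net growth.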

What was measured:
Assay in all cases: NCI-60 cell line screen, 48 h
IGROV1 ovarian = test system: IGROV1 ovarian
MOLT-4 leukemia = test system: MOLT-4 leukemia
NCI-H226 lung = test system: NCI-H226 lung
NCI-H522 lung = test system: NCI-H522 lung
OVCAR-8 ovarian = test system: OVCAR-8 ovarian
RPMI-8226 leukemia = test system: RPMI-8226 leukemia
RXF 393 renal = test system: RXF 393 renal
SK-MEL-28 melanoma = test system: SK-MEL-28 melanoma
SK-MEL-5 melanoma = test system: SK-MEL-5 melanoma
SK-OV-3 ovarian = test system: SK-OV-3 ovarian
SN12C renal = test system: SN12C renal
SNB-75 CNS = test system: SNB-75 CNS
UACC-257 melanoma = test system: UACC-257 melanoma
DU-145 prostate = test system: DU-145 prostate
HCC-2998 colon = test system: HCC-2998 colon
MCF7 breast = test system: MCF7 breast
SNB-19 CNS = test system: SNB-19 CNS
T-47D breast = test system: T-47D breast

With COc1ccc(C2S/C(=C\c3cccc([N+](=O)[O-])c3)C(=O)N2NC(=O)Cc2ccccc2)cc1 (configuration not stated) the TGI (IGROV1 ovarian) was greater than 100 µM, the TGI (MOLT-4 leukemia) was greater than 100 µM and the TGI (NCI-H226 lung) was greater than 100 µM. The TGI (NCI-H522 lung) was greater than 100 µM, the TGI (OVCAR-8 ovarian) was greater than 100 µM and the TGI (RPMI-8226 leukemia) was greater than 100 µM. For the same compound, the TGI (RXF 393 renal) was greater than 100 µM, the TGI (SK-MEL-28 melanoma) was greater than 100 µM and the TGI (SK-MEL-5 melanoma) was greater than 100 µM. For the same compound, the TGI (SK-OV-3 ovarian) was greater than 100 µM, the TGI (SN12C renal) was greater than 100 µM and the TGI (SNB-75 CNS) was greater than 100 µM. It also gave a TGI (UACC-257 melanoma) greater than 100 µM.

With [O-][n+]1onc2c1-c1nonc1CC2 the TGI (DU-145 prostate) was greater than 100 µM, the TGI (HCC-2998 colon) was greater than 100 µM and the TGI (IGROV1 ovarian) was greater than 100 µM. The TGI (MCF7 breast) was greater than 100 µM, the TGI (MOLT-4 leukemia) was greater than 100 µM and the TGI (NCI-H226 lung) was 76.3 µM. The TGI (NCI-H522 lung) was 95.1 µM, the TGI (OVCAR-8 ovarian) was greater than 100 µM and the TGI (RPMI-8226 leukemia) was greater than 100 µM. It also gave a TGI (RXF 393 renal) of 69.5 µM, a TGI (SK-MEL-28 melanoma) greater than 100 µM and a TGI (SK-MEL-5 melanoma) of 78.6 µM. For the same compound, the TGI (SK-OV-3 ovarian) was greater than 100 µM, the TGI (SN12C renal) was greater than 100 µM and the TGI (SNB-19 CNS) was greater than 100 µM. It also gave a TGI (T-47D breast) greater than 100 µM and a TGI (UACC-257 melanoma) of 59.4 µM.

Clc1cccc(Cl)c1C1SCc2nc3ncccc3n21 (configuration not stated) was tested, and the TGI (DU-145 prostate) was greater than 100 µM, the TGI (HCC-2998 colon) was greater than 100 µM and the TGI (IGROV1 ovarian) was greater than 100 µM. The TGI (MOLT-4 leukemia) was greater than 100 µM, the TGI (NCI-H226 lung) was greater than 100 µM and the TGI (NCI-H522 lung) was greater than 100 µM. It also gave a TGI (OVCAR-8 ovarian) greater than 100 µM, a TGI (RPMI-8226 leukemia) greater than 100 µM and a TGI (RXF 393 renal) greater than 100 µM. It also gave a TGI (SK-MEL-28 melanoma) greater than 100 µM, a TGI (SK-MEL-5 melanoma) greater than 100 µM and a TGI (SK-OV-3 ovarian) greater than 100 µM. For the same compound, the TGI (SN12C renal) was greater than 100 µM, the TGI (SNB-19 CNS) was greater than 100 µM and the TGI (SNB-75 CNS) was greater than 100 µM. For the same compound, the TGI (T-47D breast) was greater than 100 µM and the TGI (UACC-257 melanoma) was greater than 100 µM.

COc1ccc(-n2nnnc2C2(Nc3ccccc3)CCN(Cc3ccccc3)CC2)cc1 gave a TGI (DU-145 prostate) greater than 100 µM, a TGI (HCC-2998 colon) of 14 µM and a TGI (IGROV1 ovarian) of 41.2 µM. It also gave a TGI (MCF7 breast) of 23.3 µM, a TGI (NCI-H226 lung) greater than 100 µM and a TGI (OVCAR-8 ovarian) of 54.6 µM. The TGI (RPMI-8226 leukemia) was 48.5 µM, the TGI (RXF 393 renal) was 33.8 µM and the TGI (SK-MEL-28 melanoma) was 26.6 µM. It also gave a TGI (SK-MEL-5 melanoma) of 24.6 µM, a TGI (SK-OV-3 ovarian) of 86.2 µM and a TGI (SN12C renal) of 28 µM. The TGI (SNB-19 CNS) was 68.5 µM, the TGI (SNB-75 CNS) was 44.7 µM and the TGI (T-47D breast) was 45.2 µM. The TGI (UACC-257 melanoma) was 28.9 µM.

For CC(C)[C@H](NC(=O)[C@@H](O)[C@H](N)Cc1ccccc1)C(=O)N[C@@H](Cc1ccccc1)C(=O)O, the TGI (DU-145 prostate) was greater than 100 µM, the TGI (HCC-2998 colon) was greater than 100 µM and the TGI (IGROV1 ovarian) was greater than 100 µM. The TGI (MCF7 breast) was greater than 100 µM, the TGI (MOLT-4 leukemia) was greater than 100 µM and the TGI (NCI-H226 lung) was greater than 100 µM. It also gave a TGI (NCI-H522 lung) greater than 100 µM, a TGI (OVCAR-8 ovarian) greater than 100 µM and a TGI (RPMI-8226 leukemia) greater than 100 µM. It also gave a TGI (SK-MEL-28 melanoma) greater than 100 µM, a TGI (SK-MEL-5 melanoma) greater than 100 µM and a TGI (SK-OV-3 ovarian) greater than 100 µM. It also gave a TGI (SN12C renal) greater than 100 µM, a TGI (SNB-19 CNS) greater than 100 µM and a TGI (SNB-75 CNS) greater than 100 µM. It also gave a TGI (T-47D breast) greater than 100 µM and a TGI (UACC-257 melanoma) greater than 100 µM.

COc1cc(OC)nc(NC(=O)NS(=O)(=O)c2cccc3ncn(C)c(=O)c23)n1 showed a TGI (DU-145 prostate) greater than 100 µM, a TGI (IGROV1 ovarian) greater than 100 µM and a TGI (MCF7 breast) greater than 100 µM. The TGI (MOLT-4 leukemia) was greater than 100 µM, the TGI (NCI-H226 lung) was greater than 100 µM and the TGI (NCI-H522 lung) was greater than 100 µM. It also gave a TGI (OVCAR-8 ovarian) greater than 100 µM, a TGI (RPMI-8226 leukemia) greater than 100 µM and a TGI (RXF 393 renal) greater than 100 µM. For the same compound, the TGI (SK-MEL-5 melanoma) was greater than 100 µM, the TGI (SK-OV-3 ovarian) was greater than 100 µM and the TGI (SN12C renal) was greater than 100 µM. The TGI (SNB-19 CNS) was greater than 100 µM, the TGI (SNB-75 CNS) was greater than 100 µM and the TGI (T-47D breast) was greater than 100 µM. The TGI (UACC-257 melanoma) was greater than 100 µM.

Work on O=C1NCN(c2ccccc2)C12CCN(CCCSc1ccc(F)cc1)CC2 yielded a TGI (DU-145 prostate) greater than 100 µM, a TGI (HCC-2998 colon) of 67.2 µM and a TGI (IGROV1 ovarian) of 51.3 µM. It also gave a TGI (MCF7 breast) greater than 39.9 µM, a TGI (MOLT-4 leukemia) greater than 100 µM and a TGI (NCI-H226 lung) greater than 88 µM. The TGI (NCI-H522 lung) was greater than 100 µM, the TGI (OVCAR-8 ovarian) was greater than 100 µM and the TGI (RPMI-8226 leukemia) was greater than 100 µM. The TGI (RXF 393 renal) was greater than 100 µM, the TGI (SK-MEL-28 melanoma) was greater than 100 µM and the TGI (SK-MEL-5 melanoma) was 17.9 µM. The TGI (SK-OV-3 ovarian) was greater than 100 µM, the TGI (SN12C renal) was greater than 100 µM and the TGI (SNB-19 CNS) was greater than 100 µM. It also gave a TGI (SNB-75 CNS) greater than 86.1 µM, a TGI (T-47D breast) greater than 100 µM and a TGI (UACC-257 melanoma) of 8.21 µM.

Compound O=C(O)CCCC#CCCCC(=O)O has a TGI (DU-145 prostate) greater than 100 µM, a TGI (HCC-2998 colon) greater than 100 µM and a TGI (IGROV1 ovarian) greater than 100 µM. The TGI (MCF7 breast) was greater than 100 µM, the TGI (NCI-H522 lung) was greater than 100 µM and the TGI (OVCAR-8 ovarian) was greater than 100 µM. It also gave a TGI (RXF 393 renal) greater than 100 µM, a TGI (SK-MEL-28 melanoma) greater than 100 µM and a TGI (SK-MEL-5 melanoma) greater than 100 µM. It also gave a TGI (SK-OV-3 ovarian) greater than 100 µM, a TGI (SN12C renal) greater than 100 µM and a TGI (SNB-19 CNS) greater than 100 µM. The TGI (SNB-75 CNS) was greater than 100 µM, the TGI (T-47D breast) was greater than 100 µM and the TGI (UACC-257 melanoma) was greater than 100 µM.

CCC(/C=C/c1ccccc1)=N\N=C(\C=C\c1ccccc1)CC gave a TGI (HCC-2998 colon) greater than 100 µM, a TGI (IGROV1 ovarian) greater than 100 µM and a TGI (MOLT-4 leukemia) greater than 100 µM. It also gave a TGI (NCI-H226 lung) greater than 100 µM, a TGI (NCI-H522 lung) greater than 100 µM and a TGI (OVCAR-8 ovarian) greater than 100 µM. For the same compound, the TGI (RPMI-8226 leukemia) was greater than 100 µM, the TGI (SK-MEL-28 melanoma) was greater than 100 µM and the TGI (SK-MEL-5 melanoma) was greater than 100 µM. It also gave a TGI (SK-OV-3 ovarian) greater than 100 µM, a TGI (SN12C renal) greater than 100 µM and a TGI (SNB-19 CNS) greater than 100 µM. The TGI (SNB-75 CNS) was greater than 100 µM and the TGI (UACC-257 melanoma) was greater than 100 µM.

With CC1(C)CC[C@]2(C(=O)O)CC[C@]3(C)C(=CC[C@@H]4[C@@]5(C)CC[C@@H]6OC(C)(C)OC[C@@]6(C)[C@@H]5CC[C@]43C)[C@H]2C1 the TGI (DU-145 prostate) was 31.9 µM, the TGI (HCC-2998 colon) was 27.5 µM and the TGI (IGROV1 ovarian) was 30.2 µM. For the same compound, the TGI (MOLT-4 leukemia) was 34.3 µM, the TGI (NCI-H522 lung) was 29 µM and the TGI (OVCAR-8 ovarian) was greater than 100 µM. It also gave a TGI (RPMI-8226 leukemia) of 66 µM, a TGI (SK-MEL-28 melanoma) of 29.2 µM and a TGI (SK-OV-3 ovarian) of 91.8 µM. It also gave a TGI (SN12C renal) of 13 µM, a TGI (SNB-19 CNS) of 96.2 µM and a TGI (SNB-75 CNS) of 27.7 µM. For the same compound, the TGI (T-47D breast) was 38.8 µM and the TGI (UACC-257 melanoma) was 31.8 µM.

Compound CC(C)(C)C1=NN=C2c3ccccc3C(=O)C21 (configuration not stated) has a TGI (DU-145 prostate) greater than 100 µM, a TGI (HCC-2998 colon) greater than 100 µM and a TGI (IGROV1 ovarian) greater than 100 µM. The TGI (MCF7 breast) was greater than 100 µM, the TGI (MOLT-4 leukemia) was 85 µM and the TGI (NCI-H226 lung) was greater than 100 µM. For the same compound, the TGI (NCI-H522 lung) was greater than 100 µM, the TGI (OVCAR-8 ovarian) was greater than 100 µM and the TGI (RPMI-8226 leukemia) was greater than 100 µM. It also gave a TGI (RXF 393 renal) greater than 100 µM, a TGI (SK-MEL-28 melanoma) greater than 100 µM and a TGI (SK-MEL-5 melanoma) of 54.3 µM. It also gave a TGI (SN12C renal) greater than 100 µM, a TGI (SNB-19 CNS) greater than 100 µM and a TGI (SNB-75 CNS) greater than 100 µM. The TGI (T-47D breast) was greater than 100 µM and the TGI (UACC-257 melanoma) was greater than 100 µM.

CCCN1CN(C(C(=O)N[C@@H]2C(=O)N3C(C(=O)O)=C(C)CSC23)c2ccccc2)CSC1=S (some centres not stated) was tested, and the TGI (IGROV1 ovarian) was greater than 100 µM, the TGI (MOLT-4 leukemia) was greater than 100 µM and the TGI (NCI-H522 lung) was greater than 100 µM. The TGI (OVCAR-8 ovarian) was greater than 100 µM, the TGI (RPMI-8226 leukemia) was greater than 100 µM and the TGI (RXF 393 renal) was 82.5 µM. The TGI (SK-MEL-28 melanoma) was greater than 100 µM, the TGI (SK-MEL-5 melanoma) was greater than 100 µM and the TGI (SK-OV-3 ovarian) was greater than 100 µM. For the same compound, the TGI (SN12C renal) was greater than 100 µM, the TGI (SNB-19 CNS) was greater than 100 µM and the TGI (SNB-75 CNS) was greater than 100 µM. The TGI (UACC-257 melanoma) was greater than 100 µM.
